From US20110280770A1, “Nanogenerator” (priority 2010, published 2011)
Non-standard residues stand in square brackets, D forms with d. Residues, ends and D or L forms follow the SMILES beside them. *: point of attachment. NOTA = O=C(O)CN1CCN(CC(=O)O)CCN(CC(=O)*)CC1

Assays:
[1] = Biodistribution in B16/F1 flank tumor bearing C57 mice; assay type: in vivo; conditions: both sexes, C57, mouse, tumor (B16/F1 flank tumor), iv, 0.27 mCi, total radioactivity; 40 min post injection; tail vein
Description: (§1) Pilot Animal Studies using ^62Cu labeled Peptide: Biodistribution and PET studies of radiolabeled ^62Cu-NOTA-2-GGG-Arg11 were performed in B16/F1 flank tumor bearing C57 mice utilizing the newly designed nanogenerator with the 5 μg lyophilized peptide kits. Fourteen male and female, 6-8 week old mice were injected with B16/F1 cells (1,000,000/mouse) in the flanks or shoulders while anesthetized to induce solid tumors. B16/F1 solid tumors appeared in 14 days post inoculation. Radiolabeled peptides were injected through the tail vein at an average of 0.27 mCi per dose administration for biodistribution studies and an average of 0.7 mCi for imaging, achieving specific activities of 111.2-140.4 Ci/μmol (mean=122.1 Ci/μmol), and an average of 94.0% radiolabeling yield without a purification step after synthesis. Animals in the biodistribution studies were sacrificed by cervical dislocation followed by pneumothorax at 10, 20, and 40 min post administration, major organs removed, weighed, and radioactivity quantitated in a windowed gamma counter.
(§2) Uptake was measured for the tumor, blood, heart, lung, liver, small intestine, intestine, kidneys, muscle, carcass and paper, and skin. Tumor uptake was rapid, reaching 4.65±0.48 ID/g and 9.43±2.69% ID/g at 20 and 40 min post injection, respectively.

[2] = tested on: B16/F1 flank tumor; experiment: as above; assay type: in vivo; conditions: for Tumor uptake: tail vein
Description: as §1, §2

[3] = tested on: B16/F1 flank tumor; experiment: PET imaging study in tumor bearing mice (microPET-Focus); assay type: in vivo; conditions: static imaging for 20 min starting 10 min post administration
Description: as §1, with “Radiolabeled peptides were injected through the tail vein at an average of 0.27 mCi per dose administration for biodistribution studies and an average of 0.7 mCi for imaging, achieving specific activities of 111.2-140.4 Ci/μmol (mean=122.1 Ci/μmol), and an average of 94.0% radiolabeling yield without a purification step after synthesis.” left out
A preliminary PET imaging study was also performed, in which two anesthetized animals were used for PET imaging studies starting at 10 min post administration of the radiolabeled peptide and statically imaged with a microPET-Focus scanner (Siemens Preclinical Solutions, Knoxville, Tenn.) for 20 min (see FIG. 9). […] Background levels of radioactivity in the blood and major organs and tissues were low, except for the kidneys.

[4] = tested on: melanoma cells; experiment: In vitro cell binding of radiolabeled peptide; assay type: cell-based; conditions: 1 million cells per well, 320,000 cpm; maximum at 10 min, constant for 50 min
Description: Tissue culture wells containing 1 million cells each were incubated with 320,000 cpm of ^62Cu-NOTA-2-GGG-Arg11 for various times between 5 min and 50 min then washed and counted. […] In vitro cell binding of 10% for the ^62Cu-NOTA-2-GGG-Arg11 peptide is similar to then in vitro cell uptake percentages for HPLC purified.

[5] = target: T1, melanocortin-1 receptor (Mus musculus, UniProt Q01727); conditions: comparison value for the optimal peptide construct for Cu-64; cited from earlier work
T1 construct: endogenous in cells; host or cells: B16/F1 cells
T1 sequence (Q01727 whole entry): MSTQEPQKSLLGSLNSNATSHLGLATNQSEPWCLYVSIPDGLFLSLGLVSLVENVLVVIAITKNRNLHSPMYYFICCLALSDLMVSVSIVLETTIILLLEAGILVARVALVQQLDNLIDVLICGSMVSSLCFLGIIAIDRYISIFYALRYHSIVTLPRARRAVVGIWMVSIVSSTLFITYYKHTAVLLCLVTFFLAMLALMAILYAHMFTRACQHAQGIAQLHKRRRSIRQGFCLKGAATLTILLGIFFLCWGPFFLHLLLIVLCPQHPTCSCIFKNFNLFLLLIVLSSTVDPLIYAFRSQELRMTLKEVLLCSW

| tissue uptake at 40 min [1] | Tumor uptake ([2]; 20 min post injection) | Tumor uptake ([2]; 40 min post injection) | Compound | Tumor uptake in the blocked mice relative to radiolabeled peptide alone ([2]; 20 min post injection, 20 μg non-labeled NDP-MSH co-injected) | Clearance and route of excretion ([2]; biodistribution at 10, 20 and 40 min) | PET tumor visualization [3] | Maximum cell uptake of the radiolabeled peptide [4] | IC50 [5] |
| --- | --- | --- | --- | --- | --- | --- | --- | --- |
| 9.43 ± 2.69 %ID/g | 4.65 ± 0.48 %ID/g | 9.43±2.69 % ID/g | CC(C)[C@H](NC(=O)[C@@H]1CCCN1C(=O)[C@H](CCCNC(=N)N)NC(=O)[C@H](CS)NC(=O)[C@H](Cc1c[nH]c2ccccc12)NC(=O)[C@H](CCCNC(=N)N)NC(=O)[C@@H](Cc1ccccc1)NC(=O)[C@H](Cc1c[nH]cn1)NC(=O)[C@H](CCC(=O)O)NC(=O)[C@H](CS)NC(=O)[C@H](CS)NC(=O)CNC(=O)CNC(=O)CNC(=O)CN1CCN(CC(=O)O)CCN(CC(=O)O)CC1)C(N)=O [^62Cu-NOTA-2-GGG-Arg11, metal not drawn] ({NOTA}-GGGCCEH[dF]RWCRPV-NH2) | 0.55 % of tumor uptake in the mice receiving the radiolabeled peptide alone | clearance from the blood and non-target tissues except for the kidneys, which was the primary route of excretion | tumor is clearly visualized | 10% |  |
|  |  |  | CBTE2A-ReCCMSH [CBTE2A conjugated ReCCMSH peptide, the optimal peptide construct for Cu-64] |  |  |  |  | 5.4 nM |
